Test results from patent US6117975A, “Melanocortin receptor polypeptides MC-3, MC-4, and MC-5” (The Regents of the University of Michigan, priority 1996, dated 2000).
No end group written: not given here.

Tests used:
MC4 receptor [1] = biological target: T1, MC4 receptor (Homo sapiens, UniProt P32245); experiment: intracellular cAMP content in Hepa cells transfected with the MC4 receptor; type: cell-based
T1 construct: expressed in transfected cells; host or cells: COS-1 (transient, lipofection); Hepa rat hepatoma; CMVneo vector

MC1 receptor [2] = biological target: T2, MC1 receptor (Homo sapiens, UniProt Q01726, R163Q/S90T); experiment: cAMP generation in L-cells transfected with the MC1 receptor; type: cell-based
T2 construct: expressed in transfected cells
T2 sequence (Q01726 1-317 S90T/R163Q): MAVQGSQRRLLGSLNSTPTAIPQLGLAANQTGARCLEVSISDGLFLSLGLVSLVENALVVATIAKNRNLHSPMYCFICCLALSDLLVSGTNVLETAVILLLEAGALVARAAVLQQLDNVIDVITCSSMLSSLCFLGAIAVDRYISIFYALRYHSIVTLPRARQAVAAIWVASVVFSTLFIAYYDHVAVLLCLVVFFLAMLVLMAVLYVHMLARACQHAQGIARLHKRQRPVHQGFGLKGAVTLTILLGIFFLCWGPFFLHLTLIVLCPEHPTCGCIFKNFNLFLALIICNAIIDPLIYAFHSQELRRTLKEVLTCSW
Description: (§1) Receptor Expression. […] The sequences were subsequently checked by nucleotide sequencing to insure that no sequence errors were induced by PCR. L-cells (a mouse fibroblast-like cell line) were transfected using a calcium phosphate co-precipitation method as described in Chen, C. A. et al. Bio/Techniques 6:632-638 (1988). Permanently transfected L-cells were selected by resistance to the neomysin analogue G418, and receptor mRNA expression was checked by Northern blot analysis. […] COS-1 cells which were transiently transfected with the CMVneo/MC4R gene construct by lipofection as described in Feigner, P. L. et al., PNAS (USA) 84:7413-7417 using the Lipofectin Reagent (Life Technologies Inc.) were split into 12-well plates after 24 hr and assayed 36 hr post-transfection.
(§2) cAMP Assays. For these assays a cAMP assay kit (TRK 432, Amersham Corp.) was employed. […] The cells were maintained in Dulbecco's modified Eagle's medium (GIBCO) containing 4.5 g/100 ml glucose, 10% fetal calf serum, 100 units/ml penicillin and streptomycin, 1 mM sodium pyruvate, and 1 mg/ml Geneticin. […] An aliquot (0.5 ml) of Earle's balanced salt solution was placed into each well along with 5 μl of 2×10^-2 M isobutylmethylxanthine. Varying concentrations of agonist were added, and the cells were incubated to 30 min at 37° C. Ice-cold 30% trichloracetic acid (500 μl/well) was added to stop the reaction and precipitate cellular protein. The cells were scraped and transferred to 16×150-mm glass tubes, then placed on ice for 30 min. The precipitate was then centrifuged for 10 min at 1,900×g, and the supernatant was ether extracted, lyophilized, and resuspended in 50 mM Tris, 2 mM EDTA (pH 7.5). cAMP content was then measured by a competitive binding assay according to the assay instructions.

MC3 receptor [3] = biological target: T3, MC3 receptor (Homo sapiens, UniProt P41968); experiment: intracellular cAMP content in Hepa cells transfected with the MC3 receptor; type: cell-based; parameters: these were utilized to obtain full-length genomic clones by screening a genomic library; expressed in transfected cells; CMVneo vector
Procedure: Receptor Expression. […] The sequences were subsequently checked by nucleotide sequencing to insure that no sequence errors were induced by PCR. […] A rat hepatoma cell line (Hepa) which lacks endogenous melanocortin receptors was also transfected with the CMVneo/MC3R and CMVneo/MC4R constructs.
cAMP Assays. For these assays a cAMP assay kit (TRK 432, Amersham Corp.) was employed. Cells transfected with the receptors were grown to confluence in 12-well (2.4×1.7 cm) tissue culture plates. The cells were maintained in Dulbecco's modified Eagle's medium (GIBCO) containing 4.5 g/100 ml glucose, 10% fetal calf serum, 100 units/ml penicillin and streptomycin, 1 mM sodium pyruvate, and 1 mg/ml Geneticin. For assays, this medium was removed and cells were washed twice with Earle's balanced salt solution containing 10 mM Hepes (pH 7.4), 1 mM glutamine, 26.5 mM sodium bicarbonate, and 100 mg/ml bovine serum albumin. An aliquot (0.5 ml) of Earle's balanced salt solution was placed into each well along with 5 μl of 2×10^-2 M isobutylmethylxanthine. Varying concentrations of agonist were added, and the cells were incubated to 30 min at 37° C. Ice-cold 30% trichloracetic acid (500 μl/well) was added to stop the reaction and precipitate cellular protein. The cells were scraped and transferred to 16×150-mm glass tubes, then placed on ice for 30 min. The precipitate was then centrifuged for 10 min at 1,900×g, and the supernatant was ether extracted, lyophilized, and resuspended in 50 mM Tris, 2 mM EDTA (pH 7.5). cAMP content was then measured by a competitive binding assay according to the assay instructions.
Receptor Gene Expression. The coding region of the MC3 receptor gene was subcloned into the eukaryotic expression vector CMVneo using a polymerase chain reaction (PCR) strategy as previously described. […] The insert was subsequently checked by dideoxynucleotide sequencing to insure that no errors were induced by the PCR. […]

MC3 receptor [4] = biological target: T3, MC3 receptor; experiment: cAMP generation in L-cells transfected with the MC3 receptor; type: cell-based; parameters: these were utilized to obtain full-length genomic clones by screening a genomic library; expressed in transfected cells; CMVneo vector
Description: as §1, §2

MC3 receptor [5] = biological target: T3, MC3 receptor; experiment: [3H] inositol phosphate (IP) production in Hepa cells transfected with the MC3 receptor
Description: Receptor Gene Expression. The coding region of the MC3 receptor gene was subcloned into the eukaryotic expression vector CMVneo using a polymerase chain reaction (PCR) strategy as previously described. […] The insert was subsequently checked by dideoxynucleotide sequencing to insure that no errors were induced by the PCR. A rat hepatoma cell line (Hepa) which lacks endogenous melanocortin receptors was transfected with the CMVneo/MC3 receptor construct using the calcium phosphate co-precipitation method. […] Cells were selected for resistance to the neomycin analogue Geneticin (Life Sciences) and clones were subsequently chosen for high levels of receptor mRNA expression by Northern blot analysis.
Inositol Phosphate (IP) Assays. Measurement of inositol phospholipid turnover in Hepa cells was performed according to a modification of previously published methods as follows. […] Cells grown to semi-confluence in multiwell plates were prelabeled with [2-^3 H] myo-inositol in DMEM for 24 hr, incubated in EBSS for 30 min, then incubated for another 15 min in EBSS with 10 mM LiCl. The final incubation was in media with experimental ligand added for up to three min after which ice cold 100% methanol was added and the cells were scraped and extracted with 2 ml chloroform, 10 μl HCl (13 N), and 200 μl of 100 mM EDTA in a 50 ml polypropylene tube. The mixture was then vortexed and centrifuged at 1,900 X g. The supernatant was removed and its pH was adjusted to 7.0 by adding 1 N NaOH. Waters Accel plus QMA SEP-PAK anion exchange cartridges (Waters Chromatography, Millipore Corporation, Milford, Mass.) were used to separate inositol phosphates under differing concentrations of formatelformic acid. The cartridges were pretreated by washing with 10 ml of a solution of 1 M ammonium formate in 0.1 M formic acid followed by 20 ml of distilled water. The samples were applied with a flow rate of approximately 10 ml/min using a 10 ml syringe. IPs were then eluted using 10 mM increments of ammonium formate in a stepwise fashion. Inositol monophosphate was eluted with 10 mM formic acid/100 mM ammonium formate/5 mM disodium tetraborate, inositol bisphosphate was eluted with 20 mM formic acid/200 mM ammonium formate/5 mM disodium tetraborate, and IP3 was eluted with 30 mM formic acid/300 mM ammonium formate/5 mM disodium tetraborate. […] Eluted radioactivity from the pooled fractions (total inositol phosphates) were measured by liquid-scintillation spectrometry (Beckman model LS7800 instrument).

[6] = system: chimeric receptor cH2R/MC3R-3i; experiment: [3H] IP production in Hepa cells transfected with chimeric cH2R/hMC3R-3i; type: cell-based; conditions: pretreatment, chimeric cH2R/MC3R-3i
Description: Chimeric Receptor. […] The chimeric receptor (cH2R/MC3R-3i) was constructed by cassette mutation at the junction of the fifth and sixth transmembrane domains of cH2R. Six PCR primers were used to generate three DNA fragments which were subsequently ligated together. The three PCR-generated fragments consisted of 1) the 5' coding region of the cH2R receptor beginning just prior to the ATG codon and ending with the 3' end of the fifth transmembrane domain; 2) the portion of the MC3 receptor gene encoding its third intracytoplasmic loop; and 3) the 3' coding region of the cH2R beginning with that segment encoding the 5' end of the sixth transmembrane domain and ending slightly past the termination codon. The DNA fragments were cut with appropriate restriction enzymes at pre-engineered restriction sites designed so that the three fragments could be assembled together in only the correct alignment. Restriction sites were also designed to facilitate subcloning the chimeric receptor DNA into CMVneo and the sequencing vector M13. The nucleotide sequence of the CMVneo cH2R/MC3R-3i construct was confirmed prior to expression in Hepa cells.
Inositol Phosphate (IP) Assays.

[7] = system: endogenous vasopressin receptors; experiment: intracellular Ca++ concentration in Hepa cells, endogenous vasopressin receptors; type: cell-based, rat
Procedure: Measurement of Intracellular Ca++ Concentration ([Ca++]i). For these experiments, Hepa cells were detached by incubation in Ca^++ -free EBSS with 2.0 mM EDTA, loaded with 1 μM fura-2/AM (Molecular Probes, Eugene, Oreg.) for 20 min at 37° C. in EBSS containing 0.1% BSA and 25 mM HEPES, washed by centrifugation at 50 X g, and resuspended and maintained in EBSS buffer at room temperature until the time of experimentation. [Ca^++ ]i measurements of cells suspended in a quartz cuvette were obtained using a dual-wavelength modular fluorometer (Spex-Fluorolog 2, Spex Industries, Edison, N.J.) according to previously described methods. DelValle, J. et al., Am. J. Physiol. 262:G420-426 (1992).

mMC5 receptor = biological target: T4, mMC5 receptor (Mus musculus, UniProt P41149); experiment: cAMP generation in L-cells transfected with the mMC5 receptor; type: cell-based
T4 construct: expressed in transfected cells
Description: as §1, §2

MC4 receptor [8] = biological target: T1, MC4 receptor; experiment: cAMP generation in L-cells transfected with the MC4 receptor gene; type: cell-based
Description: as §1, §2

MC1 receptor [9] = biological target: T5, MC1 receptor (Homo sapiens, UniProt Q01726); conditions: Chhajlani et al. 1992; cited from earlier work
T5 construct: host or cells: Cos-7 cells transfected with α-MSH receptor cDNA

MC1 receptor [10] = conditions: Mountjoy et al. 1992; cited from earlier work
MC4 receptor [11] = biological target: T1, MC4 receptor; experiment: cAMP generation in COS-1 cells transiently transfected with the MC4 receptor gene; type: cell-based
Description: as §1
cAMP Assays. For these assays a cAMP assay kit (TRK 432, Amersham Corp.) was employed. […] The cells were maintained in Dulbecco's modified Eagle's medium (GIBCO) containing 4.5 g/100 ml glucose, 10% fetal calf serum, 100 units/ml penicillin and streptomycin, 1 mM sodium pyruvate, and 1 mg/ml Geneticin. […] The precipitate was then centrifuged for 10 min at 1,900×g, and the supernatant was ether extracted, lyophilized, and resuspended in 50 mM Tris, 2 mM EDTA (pH 7.5). cAMP content was then measured by a competitive binding assay according to the assay instructions.

[12] = read-out: ED50, cAMP generation

T3 sequence (P41968 whole entry): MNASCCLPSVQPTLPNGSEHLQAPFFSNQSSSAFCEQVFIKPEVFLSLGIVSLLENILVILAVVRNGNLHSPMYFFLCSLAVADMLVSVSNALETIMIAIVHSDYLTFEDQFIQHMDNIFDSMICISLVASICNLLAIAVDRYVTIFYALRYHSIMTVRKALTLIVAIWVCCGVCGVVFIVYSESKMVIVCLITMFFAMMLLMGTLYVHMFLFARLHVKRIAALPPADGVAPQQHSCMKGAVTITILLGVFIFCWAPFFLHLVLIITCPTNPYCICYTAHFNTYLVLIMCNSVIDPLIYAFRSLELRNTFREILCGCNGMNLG
T4 sequence (P41149 whole entry): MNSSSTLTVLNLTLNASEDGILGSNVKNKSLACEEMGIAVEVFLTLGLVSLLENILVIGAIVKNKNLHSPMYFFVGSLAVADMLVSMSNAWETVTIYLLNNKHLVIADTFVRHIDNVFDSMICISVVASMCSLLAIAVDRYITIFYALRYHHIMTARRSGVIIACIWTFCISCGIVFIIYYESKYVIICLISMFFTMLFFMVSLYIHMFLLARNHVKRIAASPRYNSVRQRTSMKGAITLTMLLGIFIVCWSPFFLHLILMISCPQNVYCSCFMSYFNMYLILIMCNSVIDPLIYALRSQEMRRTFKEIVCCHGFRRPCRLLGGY
T1 sequence (P32245 whole entry): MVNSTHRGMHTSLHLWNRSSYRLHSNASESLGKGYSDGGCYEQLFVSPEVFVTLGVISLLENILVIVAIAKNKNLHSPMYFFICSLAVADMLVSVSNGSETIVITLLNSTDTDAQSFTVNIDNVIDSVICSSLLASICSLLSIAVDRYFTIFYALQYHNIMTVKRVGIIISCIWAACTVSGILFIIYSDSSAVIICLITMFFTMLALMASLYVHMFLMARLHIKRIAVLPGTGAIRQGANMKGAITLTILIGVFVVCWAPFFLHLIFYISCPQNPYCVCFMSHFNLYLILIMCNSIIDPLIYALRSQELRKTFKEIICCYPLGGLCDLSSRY
T5 sequence (Q01726 whole entry): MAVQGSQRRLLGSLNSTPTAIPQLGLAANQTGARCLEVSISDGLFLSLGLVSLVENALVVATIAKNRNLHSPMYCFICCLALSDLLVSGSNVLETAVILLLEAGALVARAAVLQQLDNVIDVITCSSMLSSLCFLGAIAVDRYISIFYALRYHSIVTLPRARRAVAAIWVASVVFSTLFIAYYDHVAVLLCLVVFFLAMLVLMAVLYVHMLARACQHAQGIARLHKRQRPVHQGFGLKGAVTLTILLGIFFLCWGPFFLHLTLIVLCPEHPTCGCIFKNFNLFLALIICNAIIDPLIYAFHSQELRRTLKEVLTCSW

CSCC[C@H](N)C(=O)N[C@@H](CCC(=O)O)C(=O)N[C@@H](Cc1c[nH]cn1)C(=O)N[C@@H](Cc1ccccc1)C(=O)N[C@@H](CCCNC(=N)N)C(=O)N[C@@H](Cc1c[nH]c2ccccc12)C(=O)NCC(=O)O [ACTH(4-10)]
Emax (MC4 receptor [1]; read-out: efficacy, % of the maximal response of ACTH (1-13)): 30%

[des-acetyl] α-MSH
cAMP response (in words) (MC1 receptor [2]): identical to those observed for ACTH and α-MSH | cAMP response (in words) (MC3 receptor [3]): no difference was observed | cAMP response (in words) (MC4 receptor [1]): no difference was observed | cAMP response (in words) (MC3 receptor [4]): identical to those observed for ACTH and α-MSH

O=S(=O)(NCCNCC=Cc1ccc(Br)cc1)c1cccc2cnccc12 [H-89, N-[2-(p-bromocinnamyl-amino)ethyl]-5-isoquinolinesulfonamide]
effect on α-MSH stimulated [3H]-IP production (in words) (MC3 receptor [5]): restoration of the higher levels of [^3 H]-IP products observed with 10^-11 M α-MSH | concentration of maximum effect on α-MSH stimulated [3H]-IP production (MC3 receptor [5]; pretreatment, 10^-8 M α-MSH, Hepa cells, MC3 receptor): 1 µM | effect on inhibitory phase of histamine [3H]-IP dose response curve (in words) [6]: abolished by pretreatment with H-89

NC(=O)CC[C@@H]1NC(=O)[C@H](Cc2ccccc2)NC(=O)[C@H](Cc2ccc(O)cc2)NC(=O)[C@@H](N)CSSC[C@@H](C(=O)N2CCC[C@H]2C(=O)N[C@@H](CCCN=C(N)N)C(=O)NCC(N)=O)NC(=O)[C@H](CC(N)=O)NC1=O [vasopressin]
effect on [Ca++]i (in words) [7]: increase in [Ca^++ ]i upon stimulation of their endogenous vasopressin receptors

β-endorphin
cAMP response (in words) (MC1 receptor [2]): neither the MC1 receptor nor the MC3 receptor responded | cAMP response (in words) (mMC5 receptor): Neither were the other products of pro-opiomelanocortin processing, β-endorphin, met-enkephlin, or porcine β-lipotropin active | cAMP response (in words) (MC4 receptor [8]): did not respond | cAMP response (in words) (MC3 receptor [4]): neither the MC1 receptor nor the MC3 receptor responded

CSCC[C@H](NC(=O)[C@@H](NC(=O)[C@@H](N)Cc1ccc(O)cc1)C(C)C)C(=O)NCC(=O)N[C@@H](Cc1c[nH]cn1)C(=O)N[C@@H](Cc1ccccc1)C(=O)N[C@@H](CCCNC(=N)N)C(=O)N[C@@H](Cc1c[nH]c2ccccc12)C(=O)N[C@@H](CC(=O)O)C(=O)N[C@@H](CCCNC(=N)N)C(=O)N1CCC[C@H]1C(=O)NCC(=O)O [Pro^11 y-MSH]
efficacy, intracellular cAMP (MC4 receptor [1]; α-MSH as reference for maximum response): 75% | EC50 (MC4 receptor [1]; α-MSH dose response curve as reference for maximum response): 100 nM

Rat ACTH: rat ACTH, which differs from human ACTH in two amino acids (SYSMEHFRWGKPVGKKRRPVKVYPNVAENESAEAFPLEF; Corticotropin; UniProt P01194 124-162, looked up)
cAMP response (in words) (mMC5 receptor): produced the same results

SYSMEHFRWGKPVGKKRRPVKVYPNGAEDESAEAFPLEF [ACTH, ACTH(1-39)] [listing 1 of 2 here]
cAMP response (in words) (MC1 receptor [2]): equal potency and efficacy | Emax (MC3 receptor [5]; HepA, read-out: maximal stimulation of [3H]-IP production, % of basal unstimulated value): 155% | inositol phospholipid turnover dose-response (in words) (MC3 receptor [5]; Hepa cells, MC3 receptor): At low doses (below 10^-11 M) there was a clear stimulatory effect, however, at higher doses, there was a dose dependent inhibitory effect | affinity in displacing 125I-labeled [Nle4,D-Phe7]α-MSH (in words) (MC1 receptor [9]): equal affinities | cAMP production relative to control unstimulated levels at maximal doses (MC3 receptor [3]): exceeded 15 times the control | cAMP response (in words) (MC3 receptor [3]): stimulated cAMP production | cAMP production via the MC1 receptor (in words) (MC1 receptor [10]): less potent and less efficacious than α-MSH | cAMP response (in words) (MC4 receptor [8]): equal potency and efficacy | cAMP response (in words) (MC4 receptor [11]): marked increase in intracellular cAMP content | cAMP response (in words) (MC3 receptor [4]): equal potency and efficacy

[Met]enkephalin
cAMP response (in words) (MC1 receptor [2]): neither the MC1 receptor nor the MC3 receptor responded | cAMP response (in words) (mMC5 receptor): Neither were the other products of pro-opiomelanocortin processing, β-endorphin, met-enkephlin, or porcine β-lipotropin active | cAMP response (in words) (MC4 receptor [8]): did not respond | cAMP response (in words) (MC3 receptor [4]): neither the MC1 receptor nor the MC3 receptor responded

CCCC(=O)Nc1ncnc2c1ncn2[C@@H]1O[C@@H]2COP(=O)(O)O[C@H]2[C@H]1OC(=O)CCC [dbcAMP, dibutryl cAMP]
effect on α-MSH stimulated [3H]-IP production (in words) (MC3 receptor [5]): dose dependently inhibited the level of [^3 H]-IP turnover in response to α-MSH

SYSMEHFRWGKPVGKKRRPVKVYPNGAEDESAEAFPLEF [ACTH, ACTH(1-39)] [listing 2 of 2 here]
EC50 (MC1 receptor [2]; [12]): ~1 nM | EC50 (MC4 receptor [8]; read-out: half-maximal effect (EC50), intracellular cAMP): 1 nM | EC50 (MC3 receptor [4]; [12]): ~1 nM

Thr^1, Pro^11 y-MSH
cAMP response (in words) (MC4 receptor [1]): diminished both the potency and efficacy

B1: β-lipotropin (peptide, UniProt P01192 177-267, looked up, listed as Lipotropin beta)
Lipotropin beta: ELAGAPPEPARDPEAPAEGAAARAELEYGLVAEAEAAEKKDEGPYKMEHFRWGSPPKDKRYGGFMTSEKSQTPLVTLFKNAIVKNAHKKGQ
notes: product of pro-opiomelanocortin processing
cAMP response (in words) (mMC5 receptor): Neither were the other products of pro-opiomelanocortin processing, β-endorphin, met-enkephlin, or porcine β-lipotropin active | cAMP response (in words) (MC4 receptor [8]): small increase in cAMP
